Two compounds from ChEMBL document CHEMBL1201862, “PubChem BioAssay data set” (2004) can be followed below.

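Results reflect a 48-hour exposure of cells in 96-well plates to compound at five concentrations. At the GI50, growth is halved.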 Activity calls are given as the source filed them. Rule as the data show it: active = GI50 up to about 1.1 µM and inactive = higher.

Some test systems named below: SN12C; IGROV-1; BT-549; RPMI-8226; NCI-H460; MOLT-4; 786-0; HT-29; CCRF-CEM; HCC 2998; SNB-75; HCT-116; SK-MEL-2; MDA-MB-435; SNB-19; UACC-257; DU-145; MDA-N; SF-539; PC-3.
Common to all, as to experiment: NCI anticancer screen, dose series, 48 h

For `CCOC(=O)C(C)(C)C(O)C(C)C` (stereo not given), the GI50 in the experiment on SN12C, in the experiment with IGROV-1, with BT-549, with RPMI-8226, in the experiment with NCI-H460 and in the experiment on MOLT-4 was > 100 µM (inactive) each time. Moreover, the GI50 in the experiment on 786-0, with HT-29, in the experiment with CCRF-CEM, in the experiment with HCC 2998, in the experiment with SNB-75 and in the experiment with HCT-116 was > 100 µM (inactive) throughout. The GI50 in the experiment on SK-MEL-2, in the experiment on MDA-MB-435, in the experiment with SNB-19, in the experiment on UACC-257, with DU-145 and in the experiment with MDA-N was > 100 µM (inactive) throughout. Also, the GI50 in the experiment with SF-539 and with PC-3 was > 100 µM (inactive) throughout.
As for `CCCCCCCCCCCCCCCCCCOP(=O)([O-])OC1CC[N+](C)(C)CC1` [PERIFOSINE], the GI50 with SN12C was 4.6 µM (inactive); with IGROV-1, 2.18 µM (inactive); with BT-549 it was 12.2 µM (inactive); in the experiment with RPMI-8226 it was 3.83 µM (inactive); with NCI-H460 it was 1.75 µM (inactive); with MOLT-4 it was 3.4 µM (inactive). Moreover, the GI50 is 2.73 µM (inactive) with 786-0; 3.56 µM (inactive) in the experiment with HT-29; 0.714 µM (active) in the experiment on CCRF-CEM; 5.16 µM (inactive) with HCC 2998; 5.14 µM (inactive) with SNB-75; 7.94 µM (inactive) in the experiment with HCT-116. Also, the GI50 in the experiment on SK-MEL-2 is 13.8 µM (inactive); in the experiment on MDA-MB-435, 14.7 µM (inactive); in the experiment with SNB-19, 9.25 µM (inactive); with UACC-257 it was 19.8 µM (inactive); in the experiment with DU-145, 16.9 µM (inactive); in the experiment with MDA-N, 12.4 µM (inactive). Further, the values for the GI50 in the experiment on SF-539 and with PC-3 were 15.6 µM (inactive) and 0.873 µM (active), respectively.
